One block for each compound: values may come before it.
Key:
Albumin [1] = molecular target: T1, Albumin (Homo sapiens, UniProt P02768); test: Binding affinity to human albumin
Albumin [2] = molecular target: T2, Albumin (Mus musculus, UniProt P07724); test: Binding affinity to mouse albumin
[3] = Terminal half life in iv dosed mouse; type: ADME, organism-based; conditions: in vivo, read-out: beta t1/2 (converted)
Albumin [4] = molecular target: T1, Albumin; test: Binding affinity to human serum albumin by fluorescence polarization assay
Albumin [5] = molecular target: T1, Albumin; test: Binding affinity to human albumin assessed as dissociation constant by ITC method
Albumin [6] = molecular target: T1, Albumin; test: Binding affinity to human albumin assessed as dissociation constant by fluorescence polarization assay
Albumin [7] = molecular target: T2, Albumin; test: Binding affinity to mouse albumin assessed as dissociation constant by fluorescence polarization assay
Macaca fascicularis = organism: Macaca fascicularis; test: Terminal half life in monkey; conditions: cynomolgus monkey, in vivo; read-out: beta t1/2 (converted)
Albumin [8] = molecular target: T1, Albumin; test: Binding affinity to human albumin assessed as dissociation constant

T1 sequence (P02768 whole entry): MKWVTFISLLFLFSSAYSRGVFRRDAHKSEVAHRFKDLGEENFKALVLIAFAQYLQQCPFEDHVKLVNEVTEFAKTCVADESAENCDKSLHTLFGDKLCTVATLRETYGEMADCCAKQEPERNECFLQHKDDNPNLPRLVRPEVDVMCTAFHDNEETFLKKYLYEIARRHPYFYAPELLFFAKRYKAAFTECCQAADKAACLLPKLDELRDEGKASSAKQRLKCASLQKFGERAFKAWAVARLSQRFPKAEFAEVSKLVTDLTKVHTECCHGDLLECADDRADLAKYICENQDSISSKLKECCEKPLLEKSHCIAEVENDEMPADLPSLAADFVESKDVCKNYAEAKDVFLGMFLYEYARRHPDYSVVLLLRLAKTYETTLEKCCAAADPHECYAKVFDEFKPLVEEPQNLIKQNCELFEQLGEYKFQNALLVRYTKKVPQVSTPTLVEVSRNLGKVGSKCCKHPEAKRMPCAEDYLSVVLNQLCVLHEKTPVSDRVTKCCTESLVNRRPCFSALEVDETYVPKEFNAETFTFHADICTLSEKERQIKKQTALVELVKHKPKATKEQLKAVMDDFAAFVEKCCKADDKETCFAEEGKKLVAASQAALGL
T2 sequence (P07724 whole entry): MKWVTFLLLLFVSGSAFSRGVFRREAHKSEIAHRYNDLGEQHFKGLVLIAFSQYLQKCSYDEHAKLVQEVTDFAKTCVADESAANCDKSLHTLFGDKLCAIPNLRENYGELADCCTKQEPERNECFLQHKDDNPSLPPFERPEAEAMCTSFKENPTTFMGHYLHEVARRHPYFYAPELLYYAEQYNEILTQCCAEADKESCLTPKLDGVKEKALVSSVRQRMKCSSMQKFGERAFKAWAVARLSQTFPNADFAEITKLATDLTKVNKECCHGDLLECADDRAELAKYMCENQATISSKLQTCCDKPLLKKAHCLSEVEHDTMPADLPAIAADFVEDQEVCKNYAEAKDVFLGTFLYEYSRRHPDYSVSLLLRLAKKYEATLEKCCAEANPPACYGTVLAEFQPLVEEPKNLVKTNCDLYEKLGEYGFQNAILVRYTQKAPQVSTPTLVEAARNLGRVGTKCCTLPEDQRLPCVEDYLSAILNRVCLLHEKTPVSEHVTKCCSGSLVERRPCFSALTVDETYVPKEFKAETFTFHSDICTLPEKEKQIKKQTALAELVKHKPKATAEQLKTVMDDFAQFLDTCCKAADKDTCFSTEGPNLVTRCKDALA

Kd (Albumin [1]): 3.2 µM | Kd (Albumin [2]): 3.6 µM | half-life [3]: 16.6 h
Compound: O=C(CCCc1ccc(I)cc1)NCCCCC(NC(=O)c1ccc2c(c1)C(=O)OC21c2ccc(O)cc2Oc2cc(O)ccc21)C(=O)O (stereo not given)

Kd (Albumin [4]): 6.6 µM
Compound: Cc1cccc(OCc2cn(CCCC[C@@H]3NC(=O)CNC(=O)[C@@H]4CCCN4C(=O)[C@H](CCCCNC(=O)c4cnc(N5CCOCC5)c(N)c4)NC(=O)[C@H](CCCCNC(=S)Nc4ccc5c(c4)C(=O)OC54c5ccc(O)cc5Oc5cc(O)ccc54)NC(=O)[C@H](C)NC(=O)CNC(=O)[C@@H]4CCCN4C(=O)[C@H](CCCCNC(=O)c4cccc(Oc5ccccc5)c4)NC(=O)[C@H](C)NC3=O)nn2)n1

Kd (Albumin [5]): 0.33 µM | Kd (Albumin [6]): 0.108 µM | Kd (Albumin [7]): 0.118 µM | half-life [3]: 8.25 h
Compound: O=C(CCCc1ccc(I)cc1)NCCCC[C@@H](NC(=O)c1ccc(-c2c3ccc(=O)cc-3oc3cc(O)ccc23)c(C(=O)O)c1)C(=O)O

half-life (Macaca fascicularis): 31.2 h | Kd (Albumin [8]): 0.015 µM
Compound: Ac-WWEQDRDWDFDVFGGGTP-NH2

From ChEMBL document CHEMBL5244201, “Non-covalent albumin-binding ligands for extending the circulating half-life of small biotherapeutics” (Medchemcomm, 2019)
